Experimental data: patent US20160338928A1, “SKIN ENGAGING MEMBER COMPRISING A CYCLOHEXANECARBOXAMIDE DERIVATIVE” (The Gillette Company, priority 2015, published 2016)

Key:
human TRPM8 = molecular target: T1, human TRPM8 (Homo sapiens, UniProt Q7Z2W7); test: TRPM8 activation, FLIPR calcium flux in HEK cells stably transfected with human TRPM8; type: cell-based; details: amino acid derived side chain (alanine) in R (28) and S (776) configuration
T1 construct: expressed in transfected cells
Experimental: […] (human embryonic kidney) cells stably transfected with human TRPM8 are grown in 15 ml growth medium (high glucose DMEM (Dulbecco's Modification of Eagle's Medium) supplemented with 10% FBS (fetal bovine serum), 100 ug/ml penicillin/streptomycin, 5 μg/ml blasticindin, and 100 μg/ml zeocin) in a 75 CM^2 flask for 3 days at 37° C. in a mammalian cell culture incubator set at 5% CO2. Cells are detached with addition of 2 ml of trypsin-EDTA buffer (GIBCO® 25200, Invitrogen) for about 2-3 min. Trypsin is inactivated by addition of 8 ml growth medium. Cells are transferred to a 50 ml tube and centrifuged at 850 rpm for 3 minutes to remove medium. After centrifugation, a pellet of cells is formed in the bottom of the tube separating them from the supernatant solution. […] (Fluo-4 AM is a fluorescent dye used for quantifying cellular Ca^2+ concentrations in the 100 nM to 1 microM range.) At the end of 30 minutes, 45 ml of assay buffer (1×HBSS (Hank's Balanced Salt Solution), 20 mM HEPES (4-(2-Hydroxyethyl)-1-piperazineethanesulfonic acid)) is added to wash cells and the resulting mixture is then centrifuged at 850 rpm for 3 minutes to remove excess buffer and Fluo-4 AM calcium indicator. […]

[1] = concentration where the cooling effect could be clearly recognized; reported by Emberger and Hopp 1987; cited from earlier work

T1 sequence (Q7Z2W7 whole entry): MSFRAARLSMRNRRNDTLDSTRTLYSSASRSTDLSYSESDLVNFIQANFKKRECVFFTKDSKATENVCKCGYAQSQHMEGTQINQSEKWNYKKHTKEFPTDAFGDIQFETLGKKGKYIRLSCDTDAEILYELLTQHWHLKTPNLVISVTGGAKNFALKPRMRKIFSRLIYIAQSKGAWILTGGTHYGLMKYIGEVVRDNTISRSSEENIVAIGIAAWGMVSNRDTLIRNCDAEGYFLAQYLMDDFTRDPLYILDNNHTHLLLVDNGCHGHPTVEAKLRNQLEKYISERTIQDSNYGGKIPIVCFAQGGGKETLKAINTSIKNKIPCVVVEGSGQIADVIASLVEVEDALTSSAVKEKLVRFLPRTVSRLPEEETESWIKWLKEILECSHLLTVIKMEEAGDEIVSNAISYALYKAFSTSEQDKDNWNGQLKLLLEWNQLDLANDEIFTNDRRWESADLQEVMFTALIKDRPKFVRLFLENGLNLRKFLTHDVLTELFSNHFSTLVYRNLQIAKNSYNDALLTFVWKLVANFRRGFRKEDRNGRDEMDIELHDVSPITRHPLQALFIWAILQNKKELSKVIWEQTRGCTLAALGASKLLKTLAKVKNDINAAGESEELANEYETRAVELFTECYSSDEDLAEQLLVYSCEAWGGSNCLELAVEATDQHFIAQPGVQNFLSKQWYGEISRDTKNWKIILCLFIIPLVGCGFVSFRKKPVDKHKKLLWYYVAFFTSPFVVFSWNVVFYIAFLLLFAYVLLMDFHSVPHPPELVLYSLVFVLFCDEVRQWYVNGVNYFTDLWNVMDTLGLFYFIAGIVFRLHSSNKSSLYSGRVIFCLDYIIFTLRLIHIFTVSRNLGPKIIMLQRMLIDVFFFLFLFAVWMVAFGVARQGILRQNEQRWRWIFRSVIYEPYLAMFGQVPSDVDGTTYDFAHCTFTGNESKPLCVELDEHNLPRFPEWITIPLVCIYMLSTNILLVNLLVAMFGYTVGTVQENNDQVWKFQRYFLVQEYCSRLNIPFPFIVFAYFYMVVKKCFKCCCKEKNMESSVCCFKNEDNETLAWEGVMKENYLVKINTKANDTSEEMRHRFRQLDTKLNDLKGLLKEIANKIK

Row | activity towards the receptor (human TRPM8) | SMILES | cooling threshold [1]
1 | excellent activity | COc1ccc(NC(=O)[C@@H]2C[C@H](C)CC[C@H]2C(C)C)c(NC(=O)[C@H](C)N)c1 [Compound 776] | –
2 | excellent activity | CC(C)[C@@H]1CC[C@@H](C)C[C@H]1C(=O)NCC(NC(=O)[C@@H](C)N)c1ccccc1 (some centres unmarked) [Compound 28] | –
3 | – | CC(C)[C@@H]1CC[C@@H](C)C[C@@H]1O [Compound 1-neomenthol, 1-neomenthol] | about 3,000 ppb
4 | – | CC(C)[C@@H]1CC[C@@H](C)C[C@@H]1O [d-neomenthol] | about 25,000 ppb
5 | – | CC(C)[C@@H]1CC[C@@H](C)C[C@H]1O [L-menthol] | about 800 ppb
